The values below are quoted from earlier work in patent US20050164987A1, “Melatonin combination therapy for improving sleep quality” (priority 2003, published 2005).

For one data set, the target named is human MT1 receptors (Homo sapiens, UniProt P48039).
For the next data set, the system named is mice. The conditions noted are these: reference agents; scores below 40 denote behavioral depression.
In another data set the test system is levels of melatonin. The conditions noted are these: rats.
In the next data set the test system is MT-3 melatonin sites. The conditions noted are these: hamster brain.
Data set [1] deals with other melatonin receptors.
For data set [2], the system named is rats.
For data set [3] the following is noted: from the stomach.
A further data set relates to sleep. Conditions: post-nap.
Data set [4] has as its system healthy, elderly patients. Conditions: oral administration.
Data set [5] has as its system L-glutamate 1-carboxylase. Conditions: concentrations of 10^−3 M.
Data set [6] concerns the target GABA:2-oxo-glutarate aminotransferase (Homo sapiens, UniProt P80404). The conditions noted are these: concentrations of 10^−3 M.
Data set [7] relates to lumbar dorsal horn interneurones and Renshaw cells. The conditions noted are these: in vivo.
In the next data set the test system is GABA uptake system. The conditions noted are these: concentrations of 5×10^-4 M.
In a further data set the target is ML2 receptors (Homo sapiens, UniProt P16083).
Sequence of ML2 receptors (P16083 whole entry): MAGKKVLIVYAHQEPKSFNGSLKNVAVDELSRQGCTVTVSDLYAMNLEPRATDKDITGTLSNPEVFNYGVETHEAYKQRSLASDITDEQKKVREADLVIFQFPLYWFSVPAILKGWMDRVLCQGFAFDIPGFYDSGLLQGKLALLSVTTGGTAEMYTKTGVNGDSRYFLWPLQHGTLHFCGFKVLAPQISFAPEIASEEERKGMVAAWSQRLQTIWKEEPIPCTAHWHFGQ
For data set [8], the system named is rats. This is another data set of the same source.
Data set [9] has as its system mammalian melatonin receptors.
Another data set has as its system physiological rhythms. The conditions noted are these: 5 mg dose; simulated 9 h time lag.
Experiment in data set [10]: not given
The source holds these as a separate data set.

Experiment in data set [11]: not given
The source holds these as a separate data set.

The target in data set [12] is T1, brain omega-1 receptor located on alpha subunit of the GABAA/chloride ion channel receptor complex (Homo sapiens, UniProt P14867+P18507).
T1 construct: host or cells: brain
T1 sequence (P14867 28-456): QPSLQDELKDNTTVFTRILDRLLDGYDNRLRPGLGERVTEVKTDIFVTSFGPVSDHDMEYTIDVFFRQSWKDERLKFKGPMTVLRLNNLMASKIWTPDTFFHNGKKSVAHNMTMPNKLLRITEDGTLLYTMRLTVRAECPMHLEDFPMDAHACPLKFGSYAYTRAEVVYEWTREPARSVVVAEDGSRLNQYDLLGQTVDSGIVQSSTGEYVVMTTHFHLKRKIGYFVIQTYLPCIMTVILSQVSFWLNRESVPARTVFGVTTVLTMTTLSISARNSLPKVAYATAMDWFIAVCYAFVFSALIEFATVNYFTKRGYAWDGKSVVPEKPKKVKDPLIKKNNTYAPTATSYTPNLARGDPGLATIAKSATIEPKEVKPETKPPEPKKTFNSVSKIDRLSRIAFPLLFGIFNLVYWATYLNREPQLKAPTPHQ
T1 sequence (P18507 40-475): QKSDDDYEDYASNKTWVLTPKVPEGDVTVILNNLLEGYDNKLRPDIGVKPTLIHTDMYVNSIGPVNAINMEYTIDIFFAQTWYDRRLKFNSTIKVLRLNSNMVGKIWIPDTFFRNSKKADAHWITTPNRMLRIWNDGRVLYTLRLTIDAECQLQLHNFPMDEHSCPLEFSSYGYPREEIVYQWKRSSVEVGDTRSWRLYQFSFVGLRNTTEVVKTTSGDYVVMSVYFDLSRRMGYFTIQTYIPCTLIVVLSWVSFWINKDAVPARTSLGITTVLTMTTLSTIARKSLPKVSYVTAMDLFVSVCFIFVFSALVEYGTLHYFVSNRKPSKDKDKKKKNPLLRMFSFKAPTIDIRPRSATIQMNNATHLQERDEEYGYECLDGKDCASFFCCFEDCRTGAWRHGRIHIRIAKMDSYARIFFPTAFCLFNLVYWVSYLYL
T1 sequence (P47870 25-512 partner limits assumed): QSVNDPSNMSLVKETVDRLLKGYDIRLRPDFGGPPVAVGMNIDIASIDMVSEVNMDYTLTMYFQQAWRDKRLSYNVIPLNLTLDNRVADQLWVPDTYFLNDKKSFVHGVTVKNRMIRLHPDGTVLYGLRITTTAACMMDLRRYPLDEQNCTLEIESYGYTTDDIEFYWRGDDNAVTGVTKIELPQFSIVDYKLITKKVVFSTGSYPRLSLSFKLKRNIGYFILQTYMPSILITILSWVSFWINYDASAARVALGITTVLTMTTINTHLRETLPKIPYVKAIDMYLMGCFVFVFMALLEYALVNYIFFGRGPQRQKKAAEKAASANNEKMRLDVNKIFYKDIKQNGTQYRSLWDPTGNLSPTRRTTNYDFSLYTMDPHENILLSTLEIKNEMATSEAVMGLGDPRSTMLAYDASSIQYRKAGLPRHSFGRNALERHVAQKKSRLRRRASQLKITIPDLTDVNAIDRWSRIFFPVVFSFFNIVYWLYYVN

Data set [13] has as its system calcium-dependent release of dopamine from rabbit retina. Conditions: picomolar concentrations.
The test system of data set [14] is calcium-dependent release of dopamine from chicken retina. Conditions: picomolar concentrations.
The conditions of data set [15]: in vivo.
Data set [16] concerns patients with major depressive disorder. Conditions: 1, 5 and 25 mg once a day vs placebo, 8 weeks, over 700 patients.
Setting [17] is: 10 mg or 64 mg dosages, compared to placebo.

Where two headings read alike, the source gives them in different places.

Sequence of GABA:2-oxo-glutarate aminotransferase (P80404 29-500): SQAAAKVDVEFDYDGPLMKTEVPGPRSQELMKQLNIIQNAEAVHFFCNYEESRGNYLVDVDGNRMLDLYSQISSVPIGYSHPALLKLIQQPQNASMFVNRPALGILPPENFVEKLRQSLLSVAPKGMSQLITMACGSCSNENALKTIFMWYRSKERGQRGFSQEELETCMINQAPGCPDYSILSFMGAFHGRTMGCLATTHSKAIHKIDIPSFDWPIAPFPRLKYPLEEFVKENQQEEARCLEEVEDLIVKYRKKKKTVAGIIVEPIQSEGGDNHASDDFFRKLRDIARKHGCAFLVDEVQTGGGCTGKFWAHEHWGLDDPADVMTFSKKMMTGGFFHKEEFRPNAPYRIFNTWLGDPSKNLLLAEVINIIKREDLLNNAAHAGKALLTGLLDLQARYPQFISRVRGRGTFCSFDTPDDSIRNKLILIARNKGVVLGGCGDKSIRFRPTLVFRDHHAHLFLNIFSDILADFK
Sequence of human MT1 receptors (P48039 whole entry): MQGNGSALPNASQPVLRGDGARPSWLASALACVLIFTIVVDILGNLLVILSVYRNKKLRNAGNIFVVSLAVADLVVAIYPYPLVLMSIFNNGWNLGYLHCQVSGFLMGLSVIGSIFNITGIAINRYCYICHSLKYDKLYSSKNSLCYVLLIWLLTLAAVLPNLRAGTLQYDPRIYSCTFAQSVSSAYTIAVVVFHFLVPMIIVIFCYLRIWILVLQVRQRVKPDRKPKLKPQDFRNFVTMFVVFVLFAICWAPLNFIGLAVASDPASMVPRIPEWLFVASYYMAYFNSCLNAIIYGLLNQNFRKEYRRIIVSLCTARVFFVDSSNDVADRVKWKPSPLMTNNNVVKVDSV

For `CC(=O)NCCN1CCc2ccc3c(c21)CCO3` [GR196429, N-[2-[2,3,7,8-tetrahydro-1H-furo(2,3-g)indol-1-yl]ethyl]acetamide], at human MT1 receptors, the pKi (in general, the negative decadic logarithm of the Ki, by convention in mol/L) was 9.9.

For the compound `CN1C(=O)CN=C(c2ccccc2)c2cc(Cl)ccc21` [diazepam, 7-chloro-1,3-dihydro-1-methyl-5-phenyl-2H-1,4-benzodiazepin-2-one], in the data set with mice, the ED100 is on record as 50 mg/kg.

Take `COc1cccc2c1CC(NC(C)=O)CC2` (centres unmarked) [AH-001, 2-acetamido-8-methoxytetralin]: the levels of melatonin result in the data set on levels of melatonin is reported as “increase”.

In the case of `COC(=O)Nc1ccc2[nH]cc(CCNC(C)=O)c2c1` [5-MCA-NAT, 5-methoxy-carbonylamino-N-acetyltryptamine], in the data set with MT-3 melatonin sites, the “affinity for MT-3 melatonin sites” value is “high affinity”. For the same compound, in data set [1], the “affinity or efficacy for other melatonin receptors” value is “low affinity or efficacy”.

Consider `COc1ccc2[nH]cc(CCNc3ccc([N+](=O)[O-])cc3[N+](=O)[O-])c2c1` [ML-23, N-2,4-dinitrophenyl-5-methoxy-tryptamine], for which, in the data set on rats [2], the “development of severe motor impairment” value was “prevented”.

For zopiclone, the absorption entry in [3] is reported as “well absorbed”.

Regarding `Oc1noc2c1CCNC2` [gaboxadol, 4,5,6,7-tetrahydroisoxazolo[5,4-c]pyridin-3-ol], in the data set on sleep, the deep sleep entry is reported as “promoting”, the falling asleep result is “facilitates falling asleep” and the total sleep time result is given as “increasing”. Moreover, in [4], the “intensity of non-REM sleep” value is “increase” and the sleep consolidation result is reported as “increase”. The “interaction with L-glutamate 1-carboxylase” value in data set [5] is on record as “did not interact”. Also, the “interaction with GABA:2-oxo-glutarate aminotransferase” value in data set [6] is recorded as “did not interact”. Also, in [7], the “effect of bicuculline methochloride (BMC) on the inhibitory action on central neurones” value is recorded as “reversibly antagonized”. In the data set on GABA uptake system, the “interaction with the GABA uptake system” value is given as “did not interact”.

As to `Cc1ccc(-c2nc3ccc(C)cn3c2CC(=O)N(C)C)cc1` [zolpidem, N,N,6-trimethyl-2-(4-methylphenyl)-imidazo[1,2-s]pyridine-3-acetamide], the “kinetics in the therapeutical dose range” value (between 5 and 10 mg in conventional forms) is “linear kinetics”. For the setting “following oral administration”, the bioavailability (usually the share of a dose that reaches the circulation, judged against a reference dose that is usually intravenous) was 70%. Under “in vivo”, the duration of action result was “up to 6 hours” and the “time at which peak plasma concentration is reached” value is 0.5 to 3 h. Under “mean”, the elimination half-life was 2.4 h.

For the compound `CCC(=O)NCC[C@@H]1CCc2ccc3c(c21)CCO3` [TAK-375], the “selectivity with respect to ML2 receptors” value at ML2 receptors is recorded as “excellent selectivity”. The “affinity for ML1 receptors” value in the data set on ML1 receptors is on record as “very high affinity”. The “binding affinity for benzodiazepine receptors” value with benzodiazepine receptors was “virtually no binding affinity”. Moreover, the “binding affinity for dopamine receptors” value in the data set on dopamine receptors was “virtually no binding affinity”. Besides, the “binding affinity for opiate receptors” value with opiate receptors is reported as “virtually no binding affinity”. Besides, in the data set on rats [8] (compared with melatonin), the “duration of sleep-promoting effects” value is “last longer than those of melatonin”. In addition, in the data set on rats [8] (rat, in vivo), the learning or memory result is on record as “did not impair”. In addition, the “potential for drug dependence” value with rats [8] (rats) was “did not demonstrate the potential for drug dependence”. For the same compound, in the data set on human subjects (setting [17]), the falling asleep result is reported as “fall asleep more quickly” and the remaining asleep entry was “remain asleep for a longer period of time”. For the same compound, the side effects result in the data set on human subjects (human subjects) was “limited to only a few cases of headache, somnolence, fatigue, nausea, and dissiness”.

On to `CC(=O)NCCc1c(Cc2ccccc2)[nH]c2ccccc12` [Luzindole, 2-benzyl-N-acetyltryptamine], for which, in [9] (concentrations up to 10 μM), the “calcium-dependent release of [3H]dopamine” value was “does not modify” and the “spontaneous outflow of [3H]dopamine” value was “does not modify”. In data set [9] (in a competitive fashion), the “ability of melatonin to inhibit [3H]dopamine release” value is recorded as “antagonize”.

Turning to `CCC(=O)NCC1Cc2cccc(OC)c2C1` (centres unmarked) [GG-012, 4-methoxy-2-(methylenepropylamide)indan], in the data set with levels of melatonin, the levels of melatonin entry was “two-fold increase”.

Consider `COc1cc2c([C@@H](C)CNC(C)=O)c[nH]c2cc1Cl` [LY 156735], for which the “readaptation speed of physiological rhythms” value with physiological rhythms is given as “enhanced the readaptation speed”.

Take `CCC1(c2ccccc2)CCC(=O)NC1=O` (centres unmarked) [glutethimide]: the ED100 with mice is given as 300 mg/kg.

For the compound `CP(=O)(O)CCCN` [SKF 97541, 3-aminopropyl(methyl)phosphinic acid], the “solubility in water and dilute aqueous base” value in data set [10] was “readily soluble”.

For the compound `CCCC(C)(COC(N)=O)COC(N)=O` [meprobamate], the ED100 in the data set with mice is reported as 300 mg/kg.

As to `CCCC(C)C1(CC)C(=O)NC(=O)NC1=O` (centres unmarked) [pentobarbital], in the data set on mice, the ED100 is 100 mg/kg.

Regarding `CCN(C(C)=O)c1cccc(-c2ccnc3c(C#N)cnn23)c1` [Zaleplon, N-[3-(3-cyanopyrazolo[1,5-a]pyrimidin-7-yl)phenyl]-N-ethylacetamide], the “time of peak plasma concentrations” value in data set [11] (following oral administration) was 1 h. The bioavailability in data set [11] (oral, substantial presystemic metabolism) is recorded as 30%. In addition, the “binding to brain omega-1 receptor” value in data set [12] was “binds selectively”.

With `COc1ccc2[nH]cc(CCNC(C)=O)c2c1` [melatonin, N-[2-(5-Methoxy-1H-indol-3-yl)ethyl]acetamide], the “calcium-dependent release of dopamine” value in [13] and in [14] was “selectively inhibit” each time.

Regarding `O=C(CCCN1CCC(O)(c2ccc(Cl)cc2)CC1)c1ccc(F)cc1` [haloperidol], the ED100 in the data set with mice is recorded as 10 mg/kg.

As for `COC(=O)[C@H]1[C@H]2C[C@@H]3c4[nH]c5cc(OC)ccc5c4CCN3C[C@H]2C[C@@H](OC(=O)c2cc(OC)c(OC)c(OC)c2)[C@@H]1OC` [reserpine], in the data set with mice, the ED100 is listed as 50 mg/kg.

For the compound `CC(=O)N(C)c1cccc(-c2ccnc3c(C(=O)c4cccs4)cnn23)c1` [Indiplon, N-methyl-N-(3-{3-[2-thienylcarbonyl]-pyrazolo-[1,5-a]-pyrimidin-7-yl}-phenyl)acetamide], the half-life entry in data set [15] was “approximately 1.3 hours”.

Regarding `COc1ccc2cccc(CCNC(C)=O)c2c1` [agomelatine], the optimal dosage in data set [16] is listed as 25 mg.
